Results as given in patent US9381208B2, “Structure and use of 5′ phosphate oligonucleotides” (Rheinische Friedrich-Wilhelms-Universität, priority 2006, dated 2016).
Oligonucleotides are written 5' to 3', each unit as a sugar letter and its base; * is a phosphorothioate linkage, no mark a phosphodiester; rarer units and linkages stand in square brackets, end groups in braces. Plain capitals give the bases only. {ppp} = triphosphate group; r = 2'-OH (RNA)

Tests used:
PDC = assay: IFN-α production in human PDC (ELISA); format: cell-based; details: 24 hours
Protocol: Human PBMC were prepared from whole blood donated by young healthy donors by Ficoll-Hypaque density gradient centrifugation (Biochrom, Berlin, Germany). PDC were isolated by MACS using the blood dendritic cell Ag (BCDA)-4 dendritic cell isolation kit from Miltenyi Biotec (Bergisch-Gladbach, Germany). Briefly, PDC were labelled with anti-BDCA-4 Ab coupled to colloidal paramagnetic microbeads and passed through a magnetic separation column twice (LS column, then MS column; Miltenyi Biotec). The purity of isolated PDC (lineage-negative, MHC-II-positive and CD123-positive cells) was above 95%. Before isolation of monocytes, PDC were depleted by MACS (LD column; Miltenyi Biotec) and then monocytes were isolated using the monocyte isolation kit II (Miltenyi Biotec). […] PDC cultures were additionally supplemented with 10 ng/ml IL-3 (R&D Systems). […] Vero (African green monkey kidney) and HEK 293T (human embryonic kidney) cells were maintained in Dulbecco's modified Eagle's medium supplemented with antibiotics and 5% or 10% foetal calf serum, respectively. BSR cells were propagated in Glasgow minimal essential medium supplemented with 10% newborn calf serum, phosphate broth, amino acids and antibiotics.
Human IFN-α was assessed in cell culture supernatants using the IFN-α module set (Bender MedSystems, Graz, Austria). The murine IP-10 ELISA was from Biosource (Solingen, Germany), the murine IFN-[…] ELISA was from PBL Biomedical Laboratories (Piscataway, USA). All ELISA procedures were performed, according to manufacturers' recommendations.

human primary monocytes = assay: IFN-α production in human primary monocytes transfected with RNA (ELISA); format: cell-based; details: for IFN-α production in monocytes: 200 ng RNA transfected, 24 hours, ELISA; for IFN-α-inducing activity conferred by the 5′ 4-nucleotide sequence: adenosine-initiated in vitro transcribed RNA oligonucleotides, FIG. 13; for IFN-α induction (*100%) mean: monocytes from three donors, 36 hours after transfection, normalized to the mean induction level of all oligonucleotides (=100%)
PBMC = assay: IFN-α induction in the presence of chloroquine; format: cell-based, human
RIG-I [1] = biological target: T1, RIG-I (Homo sapiens, UniProt O95786); assay: pIFN-beta-Luc reporter assay in HEK 293 cells transfected with RIG-I; format: cell-based; set-up: Only HEK 293 cells expressing full length RIG-I responded to 5′triphosphate RNA; FLAG; expressed in transfected cells; host or cells: HEK 293; details: HEK 293 cells expressing full length RIG-I, 200 ng, 24 hours
T1 sequence (O95786 1-925): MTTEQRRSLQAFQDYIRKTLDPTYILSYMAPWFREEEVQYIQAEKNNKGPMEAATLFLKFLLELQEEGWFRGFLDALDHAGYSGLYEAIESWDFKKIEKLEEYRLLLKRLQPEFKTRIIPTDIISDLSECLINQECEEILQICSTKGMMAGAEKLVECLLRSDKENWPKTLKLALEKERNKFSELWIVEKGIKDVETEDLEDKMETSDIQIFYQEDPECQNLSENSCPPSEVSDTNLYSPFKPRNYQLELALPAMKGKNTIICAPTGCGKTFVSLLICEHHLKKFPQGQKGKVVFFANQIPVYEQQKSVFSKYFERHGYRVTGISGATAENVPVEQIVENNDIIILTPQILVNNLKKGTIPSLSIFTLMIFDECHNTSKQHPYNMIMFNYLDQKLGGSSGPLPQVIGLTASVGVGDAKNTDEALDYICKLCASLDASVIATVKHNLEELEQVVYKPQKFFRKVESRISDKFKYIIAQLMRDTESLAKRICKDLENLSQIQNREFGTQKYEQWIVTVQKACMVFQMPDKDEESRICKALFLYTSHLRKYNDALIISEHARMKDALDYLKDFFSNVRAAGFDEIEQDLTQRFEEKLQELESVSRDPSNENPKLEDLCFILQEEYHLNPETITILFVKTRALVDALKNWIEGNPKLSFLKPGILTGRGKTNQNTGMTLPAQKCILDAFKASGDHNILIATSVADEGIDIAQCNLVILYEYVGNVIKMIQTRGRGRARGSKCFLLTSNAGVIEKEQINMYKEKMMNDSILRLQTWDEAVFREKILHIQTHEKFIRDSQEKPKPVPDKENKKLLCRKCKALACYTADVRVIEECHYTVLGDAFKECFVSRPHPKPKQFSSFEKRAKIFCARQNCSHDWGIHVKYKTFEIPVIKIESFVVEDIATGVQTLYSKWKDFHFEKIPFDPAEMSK

RIG-I [2] = biological target: T1, RIG-I; assay: Ligand binding studies: pull-down of RIG-I by biotinylated RNA; set-up: HEK 293 cells were transiently transfected with full length RIG-I, RIG-I CARD2 or RIG-I ΔHELIc; expressed in transfected cells; host or cells: HEK 293 (whole cell lysate); details: whole cell lysate of HEK 293 cells overexpressing full length RIG-I
Protocol: Cell lysates were prepared according to Meister et al. (G. Meister et al., Mol Cell 15, 185 (Jul. 23, 2004)) with minor modifications. HEK 293 cells were transfected using high molecular weight (25 kDa) polyethylenimine (PEI; Sigma, 40.872-7). At a confluency of 80-90%, cells were transfected with a PEI:DNA ratio of 1.5:1. 24-36 hours after transfection cells were harvested and the cell pellet was resuspended in five pellet volumes of 10 mM KCl, 1.5 mM MgCl2, 0.5 mM dithiothreitol, 10 mM HEPES-NaOH (pH 7.9), 0.5 mM PMSF and incubated for ten minutes on ice. Subsequently cells were washed and the cell pellet was resuspended in two pellet volumes of the buffer described above and homogenized by douncing. The cell nuclei were removed from the cell lysate by centrifugation at 2.000 g for ten minutes. The supernatant was transferred into microcentrifuge tubes and cleared further by centrifugation at 2.000 g for ten minutes and further centrifugation for 30 minutes at 20.000 g to obtain the cytoplasmic extract. The concentration of KCl of the extract was subsequently raised to 100 mM by addition of 2 M KCl and glycerol was added to a percentage of 10%. For purification of FLAG-tagged RIG-IC complexes, cytoplasmic extracts were incubated in FLAG M2 agarose beads (Sigma). FLAG M2 agarose beads were washed once with 0.1 M glycine (pH 3.5) and equilibrated by washing with 1 M Tris-HCl (pH 8.0). […]

5′-ggGGGACGATCGTCgggggG-3′ [CpG-A ODN 2216, reference compound]
IFN-α production in PDC (PDC): induce IFN-α in PDC | IFN-α production in monocytes (human primary monocytes): failed to produce IFN-α | IFN-α production with chloroquine (human primary monocytes; isolated monocytes): inactive | effect of increasing concentrations of chloroquine on IFN-α induction (PBMC): inhibited IFN-α induction

5′-pppGGGGAUGAACUUCAGGGUCAGCUU-3′ ({ppp}-rGrGrGrGrArUrGrArArCrUrUrCrArGrGrGrUrCrArGrCrUrU) [tri-GFPa]
IFN-α production in monocytes (human primary monocytes): comparable levels of IFN-α | IFN-β promoter reporter expression (RIG-I [1]): strongly activated reporter expression

5′-pppGGGAGACAGGCACCACACACACACACACUUU-3′ [tri-G-AC-U]
pull-down of full length RIG-I (RIG-I [2]): did not immunoprecipitate RIG-I

5′-pppGGGGCUGACCCUGAAGUUCAUCUU-3′ [tri-GFPs]
IFN-α production in monocytes (human primary monocytes): comparable levels of IFN-α | IFN-β promoter reporter expression (RIG-I [1]): strongly activated reporter expression

CCOCc1nc2c(N)nc3ccccc3c2n1CC(C)(C)O [R848, reference compound]
IFN-α production in PDC (PDC): induce IFN-α in PDC | IFN-α production in monocytes (human primary monocytes): failed to produce IFN-α

5′-OHAGCUUAACCUGUCCUUCAA-3′ [synthetic isRNA9.2s, reference compound]
IFN-α production in PDC (PDC): produced IFN-α | IFN-β promoter reporter expression (RIG-I [1]): did not respond

acgcggggac acacacacac acacacacac (ACGCGGGGACACACACACACACACACACAC; RNA, 5' {ppp}, backbone not given here) [SEQ ID No. 147]
IFN-α-inducing activity conferred by the 5′ 4-nucleotide sequence (human primary monocytes): highest IFN-α-inducing activity | IFN-α induction (*100%) mean (human primary monocytes): 1.08 *100%

aauaggggac acacacacac acacacacac (AAUAGGGGACACACACACACACACACACAC; RNA, 5' {ppp}, backbone not given here) [SEQ ID No. 112]
IFN-α induction (*100%) mean (human primary monocytes): 0.40 *100%

accgggggac acacacacac acacacacac (ACCGGGGGACACACACACACACACACACAC; RNA, 5' {ppp}, backbone not given here) [SEQ ID No. 122]
IFN-α induction (*100%) mean (human primary monocytes): 0.73 *100%

agauggggac acacacacac acacacacac (AGAUGGGGACACACACACACACACACACAC; RNA, 5' {ppp}, backbone not given here) [SEQ ID No. 113]
IFN-α induction (*100%) mean (human primary monocytes): 0.48 *100%

aacuggggac acacacacac acacacacac (AACUGGGGACACACACACACACACACACAC; RNA, 5' {ppp}, backbone not given here) [SEQ ID No. 163]
IFN-α-inducing activity conferred by the 5′ 4-nucleotide sequence (human primary monocytes): highest IFN-α-inducing activity | IFN-α induction (*100%) mean (human primary monocytes): 1.29 *100%

aauuggggac acacacacac acacacacac (AAUUGGGGACACACACACACACACACACAC; RNA, 5' {ppp}, backbone not given here) [SEQ ID No. 119]
IFN-α induction (*100%) mean (human primary monocytes): 0.67 *100%

acucggggac acacacacac acacacacac (ACUCGGGGACACACACACACACACACACAC; RNA, 5' {ppp}, backbone not given here) [SEQ ID No. 137]
IFN-α induction (*100%) mean (human primary monocytes): 0.98 *100%

acccggggac acacacacac acacacacac (DNA ACCCGGGGACACACACACACACACACACAC; chemistry not fully specified) [SEQ ID No. 130]
IFN-α induction (*100%) mean (human primary monocytes): 0.89 *100%

auguggggac acacacacac acacacacac (AUGUGGGGACACACACACACACACACACAC; RNA, 5' {ppp}, backbone not given here) [SEQ ID No. 153]
IFN-α-inducing activity conferred by the 5′ 4-nucleotide sequence (human primary monocytes): highest IFN-α-inducing activity | IFN-α induction (*100%) mean (human primary monocytes): 1.15 *100%

agucggggac acacacacac acacacacac (AGUCGGGGACACACACACACACACACACAC; RNA, 5' {ppp}, backbone not given here) [SEQ ID No. 140]
IFN-α-inducing activity conferred by the 5′ 4-nucleotide sequence (human primary monocytes): highest IFN-α-inducing activity | IFN-α induction (*100%) mean (human primary monocytes): 1.00 *100%

acaaggggac acacacacac acacacacac (ACAAGGGGACACACACACACACACACACAC; RNA, 5' {ppp}, backbone not given here) [SEQ ID No. 142]
IFN-α-inducing activity conferred by the 5′ 4-nucleotide sequence (human primary monocytes): highest IFN-α-inducing activity | IFN-α induction (*100%) mean (human primary monocytes): 1.01 *100%
